Entries after “also recorded” stand apart in the source; their conditions may differ.
Columns and labels:
[1] = DPPH* Stable Free Radical Scavenging Assay; settings: at 50 μM
Experimental: Cucurbitacin antioxidant activity was studied first by the DPPH* Stable Free Radical Scavenging Assay (Cotelle et al., Free radical Biology & Medicine 20(1): 35-43, 1996). Experimental conditions were optimized on the standard compound ascorbic acid. Data indicated 30% activity at 50 μM concentration, and 100% activity at 100 μM for ascorbic acid. While the original assay required 10 minutes incubation time for the reaction to occur, this time was increased up to 30 minutes in case cucurbitacin were reacting slower than other reagents.

[2] = in vivo; cited from earlier work
[3] = ABTS*+ Radical Cation Decolorization Assay; settings: at 50 μM, 100 μM and 1.8 mM, up to 2 hours
Experimental: Cucurbitacin B activity was monitored at 50 μM, 100 μM, and 1.8 mM. The time interval was expanded up to 2 hours in case cucurbitacin B was reacting slowly.

HepG2 cells = assay: Cucurbitacins cytotoxicity on HepG2 cells (MTT viability assay); assay type: cell-based, human
hyaluronidase = hyaluronidase (Bos taurus, UniProt Q2YDK3); assay: Anti-Hyaluronidase Assay; assay type: biochemical; settings: up to 71.68 mM
Source text: Cucurbitacin anti-inflammatory activity was monitored by the Anti-Hyaluronidase Assay (Facino et al., Il Farmaco 48: 1447-1461, 1993 and Linker, A., Hyaluronidase. In: Methods of enzymatic analysis. Vol. 4., Bergmeyer, H. U. (Editor), Verlag Chemie GmbH, Berlin, 256-262, 1984). This assay was validated using the standard compound phenylbutazone.

[4] = Chromatographic hydrophobicity index (CHI) by RP-HPLC in buffered methanol; assay type: physicochemical; settings: buffered methanol pH 7.0, Econosil C18 150 mm, Eq. (4)
HSC-T6 cells = assay: Serum-driven HSC-T6 proliferation, experiment 2 (24 h, starved/quiescent cells); assay type: cell-based, rat; settings: HSC-T6, 24 h, starved (quiescent) cells; read-out: Experiment 2 EC50
Experimental: To overcome this problem, the amount of incubation time was increased to 24 h, and cucurbitacin activity measured on starved (Exp. 2) or proliferative (Exp. 3) cells (Table 8). Cells turned quiescent when serum was not supplemented for one day (Exp. 2). Activity of a few compounds was monitored on quiescent cells, and their activity compared to the ones measured on proliferating cells (Exp. 3).
We established several experimental conditions such as 4 hours of incubation time with cucurbitacin, and 2 day cell incubation with fresh media after challenging with cucurbitacin (Exp. 1). Other experiments involved addition of cucurbitacin for 24 hours over starved cells (Exp. 2) vs. proliferating cells (Exp. 3), and one day incubation of cells with fresh media after challenge. The 4 hour incubation period with cucurbitacin triggered anti-proliferation effect. This effect, however, was hindered by a second cycle of cell proliferation during the two-day cell growth period (see silybin, E and I glucosides, and for I-nPr). […] Because of that, the challenge time was increased to 24 hours (Exp. 2 and 3).
In experiment 3, only 40% of the cells divided. The ratio of EC50 values for exp. 2 and exp. 3 varied between 3.6 and 12.7. This may indicate differential cytotoxicity of silybin and cucurbitacin analogs over quiescent and active stellate cells. In other words, compounds show higher anti-proliferative activity on active cells than on quiescent cells.

hyaluronidase, sequence (Q2YDK3 entry or part of it): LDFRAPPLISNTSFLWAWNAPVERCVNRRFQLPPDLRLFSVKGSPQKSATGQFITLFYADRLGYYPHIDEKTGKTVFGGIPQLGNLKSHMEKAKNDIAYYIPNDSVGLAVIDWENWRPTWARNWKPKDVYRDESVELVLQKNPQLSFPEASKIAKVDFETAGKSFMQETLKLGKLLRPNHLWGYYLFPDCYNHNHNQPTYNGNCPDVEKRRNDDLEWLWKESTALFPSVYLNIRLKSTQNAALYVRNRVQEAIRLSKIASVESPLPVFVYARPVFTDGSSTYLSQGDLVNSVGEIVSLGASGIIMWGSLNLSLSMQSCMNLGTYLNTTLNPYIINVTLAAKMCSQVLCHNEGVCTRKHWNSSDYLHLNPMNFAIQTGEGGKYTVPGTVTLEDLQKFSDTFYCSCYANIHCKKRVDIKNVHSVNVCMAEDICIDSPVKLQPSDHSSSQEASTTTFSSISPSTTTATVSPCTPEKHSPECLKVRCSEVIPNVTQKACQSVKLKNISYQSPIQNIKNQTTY

Molecule | DPPH activity [1] | protective and preventive activity [2] | ABTS activity [3] | IC50 (HepG2 cells; Table 4, 24 h incubation, MTT) | IC50 (HepG2 cells; Table 5) | IC50 (HepG2 cells; Table 7) | anti-hyaluronidase activity (hyaluronidase) | CHIMeOH [4] | EC50 (HSC-T6 cells)
CC(=O)OC(C)(C)/C=C/C(=O)[C@](C)(O)[C@H]1[C@H](O)C[C@@]2(C)[C@@H]3CC=C4[C@H](C[C@H](O)C(=O)C4(C)C)[C@]3(C)C(=O)C[C@]12C [B, cucurbitacin B] | did not indicate any activity | significantly reducing serum enzymes level, steatosis, inflammation, and experimental cholestasis | No activity was observed | 27.7 ± 9 µM | 27.7 ± 9 µM | 27.7 µM | no activity; also recorded: did not demonstrate anti-hyaluronidase activity | 67.33 | –
CC(=O)OC(C)(C)/C=C/C(=O)[C@](C)(O)[C@H]1[C@H](O)C[C@@]2(C)[C@@H]3CC=C4[C@@H](C=C(O[C@@H]5O[C@H](CO)[C@@H](O)[C@H](O)[C@H]5O)C(=O)C4(C)C)[C@]3(C)C(=O)C[C@]12C [E-Gluc, cucurbitacin E glucoside] | – | – | – | 227 ± 15.3 µM | 227 ± 15.5 µM | 227 µM | – | 62.27 | 20 µM
Cucurbitacin E-Me ether | – | – | – | 12 ± 3 µM | 12 ± 3 µM | 12 µM | – | 71.55 | –
cucurbitacin E | – | significantly reducing serum enzymes level, steatosis, inflammation, and experimental cholestasis | – | 15.3 µM | 15.3 ± 6.6 µM | 15.3 µM | – | 69.6!^ | –

From patent publication US20070049538A1, “METHODS FOR USING CUCURBITACIN COMPOUNDS” (SOUTH DAKOTA STATE UNIVERSITY, priority 2005, published 2007)
